In assay [1] the test system is HL-60. Briefly: Inhibition of 2-[1,2-3H(N)]deoxy-D-glucose uptake in human HL60 cells by Michaelis-Menten plot. Format: functional, cell-based.
The test system of assay [2] is HL-60. Briefly: Inhibition of [14C]dehydroascorbic acid uptake in human HL60 cells by scintillation spectrometry in presence of buffer containing NaCl and Na2HPO4. It is filed as functional, cell-based.
Assay [3] concerns the target T1, Solute carrier family 2, facilitated glucose transporter member 1 (Rattus norvegicus) (UniProt P11167).
T1 sequence (whole entry): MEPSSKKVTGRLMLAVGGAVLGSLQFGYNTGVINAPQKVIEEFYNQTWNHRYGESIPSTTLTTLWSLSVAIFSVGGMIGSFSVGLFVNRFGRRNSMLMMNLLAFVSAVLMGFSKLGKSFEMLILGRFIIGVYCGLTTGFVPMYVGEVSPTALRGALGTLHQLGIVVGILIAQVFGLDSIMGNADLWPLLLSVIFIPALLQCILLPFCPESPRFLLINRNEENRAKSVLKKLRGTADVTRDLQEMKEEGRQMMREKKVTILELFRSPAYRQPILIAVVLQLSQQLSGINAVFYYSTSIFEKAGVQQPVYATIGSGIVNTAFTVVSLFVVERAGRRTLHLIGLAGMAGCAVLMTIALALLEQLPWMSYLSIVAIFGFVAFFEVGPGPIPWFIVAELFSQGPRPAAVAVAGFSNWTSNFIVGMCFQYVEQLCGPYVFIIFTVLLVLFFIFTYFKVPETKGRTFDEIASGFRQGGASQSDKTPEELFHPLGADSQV
As to the kind of experiment: Blockade of rat Glut1 expressed in CHO cells assessed as inhibition of 2-[1,2-3H(N)]deoxy-D-glucose uptake by scintillation spectrometry. Format: cell-based.

The subject of assay [4] is U-937. As to the kind of experiment: Inhibition of 2-[1,2-3H(N)]deoxy-D-glucose uptake in human U937 cells by Michaelis-Menten plot. It is filed as functional, cell-based.
The subject of assay [5] is U-937. As to the kind of experiment: Inhibition of 2-[1,2-3H(N)]deoxy-D-glucose uptake in human U937 cells at >100 uM by scintillation spectrometry in presence of sodium-free buffer. It is filed as functional.
For assay [6], the target named is T1, Solute carrier family 2, facilitated glucose transporter member 1 (Rattus norvegicus). As to the kind of experiment: Blockade of rat Glut1 expressed in CHO cells assessed as inhibition of [14C]dehydroascorbic acid uptake by scintillation spectrometry. Format: cell-based.
The test system of assay [7] is HL-60. As to the kind of experiment: Inhibition of [14C]dehydroascorbic acid uptake in human HL60 cells by scintillation spectrometry in presence of sodium-free buffer. It is filed as functional, cell-based.
Assay [8] deals with HL-60. Briefly: Inhibition of 2-[1,2-3H(N)]deoxy-D-glucose uptake in human HL60 cells at >500 uM by scintillation spectrometry in presence of buffer containing NaCl and Na2HPO4. It is filed as functional.
The subject of assay [9] is U-937. As to the kind of experiment: Inhibition of [14C]dehydroascorbic acid uptake in human U937 cells by scintillation spectrometry in presence of sodium-free buffer. It is filed as functional, cell-based.
Assay [10] relates to HL-60. Briefly: Inhibition of 2-[1,2-3H(N)]deoxy-D-glucose uptake in human HL60 cells by scintillation spectrometry in presence of sodium-free buffer. It is filed as functional, cell-based.
Assay [11] deals with U-937. As to the kind of experiment: Inhibition of 2-[1,2-3H(N)]deoxy-D-glucose uptake in human U937 cells at >500 uM by scintillation spectrometry in presence of buffer containing NaCl and Na2HPO4. It is filed as functional.
In assay [12] the test system is U-937. As to the kind of experiment: Inhibition of 2-[1,2-3H(N)]deoxy-D-glucose uptake in human U937 cells by scintillation spectrometry in presence of sodium-free buffer. Format: functional, cell-based.
In assay [13] the test system is HL-60. As to the kind of experiment: Inhibition of [14C]dehydroascorbic acid uptake in human HL60 cells at 32 uM by scintillation spectrometry in presence of buffer containing NaCl and Na2HPO4. Format: functional.
Assay [14] deals with HL-60. As to the kind of experiment: Inhibition of 2-[1,2-3H(N)]deoxy-D-glucose uptake in human HL60 cells at >100 uM by scintillation spectrometry in presence of sodium-free buffer. It is filed as functional.
Assay [15] has as its system U-937. Briefly: Inhibition of [14C]dehydroascorbic acid uptake in human U937 cells by Michaelis-Menten plot. It is filed as functional, cell-based.
Assay [16] deals with U-937. Briefly: Inhibition of [14C]dehydroascorbic acid uptake in human U937 cells at 38 uM by scintillation spectrometry in presence of buffer containing NaCl and Na2HPO4. Format: functional.
The subject of assay [17] is U-937. Briefly: Inhibition of [14C]dehydroascorbic acid uptake in human U937 cells by scintillation spectrometry in presence of buffer containing NaCl and Na2HPO4. Format: functional, cell-based.
Assay [18] concerns the target T2, Solute carrier family 2, facilitated glucose transporter member 3 (Homo sapiens) (UniProt P11169).
T2 sequence (whole entry): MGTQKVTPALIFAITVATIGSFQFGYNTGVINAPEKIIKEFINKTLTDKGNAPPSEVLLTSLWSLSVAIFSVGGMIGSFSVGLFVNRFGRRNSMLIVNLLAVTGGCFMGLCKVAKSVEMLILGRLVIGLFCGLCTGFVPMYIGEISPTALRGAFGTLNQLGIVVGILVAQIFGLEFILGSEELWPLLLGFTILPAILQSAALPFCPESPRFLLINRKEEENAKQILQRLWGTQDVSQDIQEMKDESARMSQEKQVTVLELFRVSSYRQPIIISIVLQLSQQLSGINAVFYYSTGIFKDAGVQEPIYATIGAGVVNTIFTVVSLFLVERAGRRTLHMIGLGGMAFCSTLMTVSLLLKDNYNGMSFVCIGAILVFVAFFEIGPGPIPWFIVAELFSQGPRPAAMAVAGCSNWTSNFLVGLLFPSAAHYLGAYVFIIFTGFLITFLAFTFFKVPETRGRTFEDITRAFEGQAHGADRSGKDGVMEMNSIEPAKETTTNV
As to the kind of experiment: Blockade of human Glut3 expressed in CHO cells assessed as inhibition of 2-[1,2-3H(N)]deoxy-D-glucose uptake by scintillation spectrometry. Format: cell-based.

Assay [19] relates to HL-60. Briefly: Inhibition of 2-[1,2-3H(N)]deoxy-D-glucose uptake in human HL60 cells at 75 uM by scintillation spectrometry in presence of buffer containing NaCl and Na2HPO4. It is filed as functional.
Assay [20] relates to U-937. Briefly: Inhibition of 2-[1,2-3H(N)]deoxy-D-glucose uptake in human U937 cells at 73 uM by scintillation spectrometry in presence of buffer containing NaCl and Na2HPO4. Format: functional.
Assay [21] has as its target T2, Solute carrier family 2, facilitated glucose transporter member 3 (Homo sapiens). Briefly: Blockade of human Glut3 expressed in CHO cells assessed as inhibition of [14C]dehydroascorbic acid uptake by scintillation spectrometry. It is filed as cell-based.

Active and inactive are the calls of the source. No cut-off for these calls is given here.

For `Oc1ccc(/C=C/c2cc(O)cc(O)c2)cc1` [RESVERATROL], the Ki (as a rule, a measure of affinity in units of concentration, obtained from inhibition or displacement) in assay [1] is 85 µM; in [4], 89 µM; in assay [15], 35 µM. Besides, the Activity entry in [2] and in assay [17] was “Dose-dependent effect” in each case. Also, the result in [3], in assay [6], in assay [7], in assay [9], in assay [10] and in assay [12] was Active. For the same molecule, the result in assay [18] and in [21] was Active. Also, the “inhibition (INH)” value was 10% in [5], 20% in assay [8], 20% in [11] and 10% in assay [14]. In assay [13], the inhibition (as a rule, the relative decrease from the control value, in per cent) at 32 µM was 50%. In addition, the inhibition at 38 µM in assay [16] was determined as 50%. The inhibition at 75 µM in assay [19] was 50%. The inhibition at 73 µM in assay [20] came out at 50%.

The record behind these values is ChEMBL document CHEMBL1150577, “Inhibition of glucose and dehydroascorbic acid uptakes by resveratrol in human transformed myelocytic cells” (J Nat Prod, 2001).
